For the test, the target named is T1, glucagon receptor (Homo sapiens, UniProt P47871).
T1 construct: expressed in transfected cells
Put plainly: Assay (I) Glucagon activity (cAMP biosensor, FLIPR). Type of test: cell-based. How it is done:
The cells (14000 per well) were incubated (37° C., 5% CO2) overnight in 384-well plates. Next day the cells were loaded with a calcium responsive dye that only distributed into the cytoplasm. Probenecid, an inhibitor of the organic anion transporter, was added to prevent the dye from leaving the cell. A PDE inhibitor was added to prevent formatted cAMP from being degraded. The plates were placed into a […] and the glucagon analogues were added. End point data were collected after 6 minutes. An increase in intracellular cAMP was proportional to an increased in calcium concentrations in the cytoplasm. When calcium was bound the dry a fluorescence signal was generated. EC50-values were calculated in Prism5.

Numbered stars: 1 amine (or outer) side, 2 acyl side, 3 side chain; on linkers, the order of the positions; unused ones are H or OH. Side chains are listed from the residue outwards. Peptide text beside a SMILES is read from it. * marks the point of attachment. C18 diacid = O=C(O)CCCCCCCCCCCCCCCCC(=O)*; γGlu = O=C(O)[C@H](CCC(=O)[*:2])N[*:1]; AEEA = NCCOCCOCC(=O)O

T1 sequence (P47871 26-477): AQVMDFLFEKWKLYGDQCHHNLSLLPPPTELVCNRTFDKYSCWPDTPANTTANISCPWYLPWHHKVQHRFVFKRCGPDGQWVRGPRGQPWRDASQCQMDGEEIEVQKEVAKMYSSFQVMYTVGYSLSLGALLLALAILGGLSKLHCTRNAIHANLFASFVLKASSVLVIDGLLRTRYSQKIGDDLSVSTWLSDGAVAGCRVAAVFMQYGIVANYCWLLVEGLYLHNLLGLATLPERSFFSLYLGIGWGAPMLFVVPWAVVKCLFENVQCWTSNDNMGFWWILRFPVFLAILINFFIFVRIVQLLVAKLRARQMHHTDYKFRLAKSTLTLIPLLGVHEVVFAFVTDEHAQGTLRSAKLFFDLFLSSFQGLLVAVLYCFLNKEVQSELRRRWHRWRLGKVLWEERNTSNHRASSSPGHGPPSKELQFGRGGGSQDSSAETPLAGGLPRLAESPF

As a reminder, the EC50 is the concentration at which the effect is half-maximal. Read a low EC50 as a more potent agent. Take `CC(C)C[C@H](NC(=O)[C@H](CC(N)=O)NC(=O)[C@H](CC(C)C)NC(=O)[C@H](CC(C)C)NC(=O)[C@H](Cc1c[nH]c2ccccc12)NC(=O)[C@H](CCCCNC(=O)CC[C@H](NC(=O)COCCOCCNC(=O)COCCOCCNC(=O)CC[C@H](NC(=O)CCCCCCCCCCCCCCCCC(=O)O)C(=O)O)C(=O)O)NC(=O)[C@@H](NC(=O)[C@H](Cc1ccccc1)NC(=O)[C@H](CC(=O)O)NC(=O)[C@H](CCC(N)=O)NC(=O)[C@H](C)NC(=O)[C@H](CCCNC(=N)N)NC(=O)[C@H](CCCNC(=N)N)NC(=O)[C@H](CO)NC(=O)[C@H](CCC(=O)O)NC(=O)[C@H](CC(C)C)NC(=O)[C@H](Cc1ccc(O)cc1)NC(=O)[C@H](CCCCN)NC(=O)[C@H](CO)NC(=O)[C@H](Cc1ccc(O)cc1)NC(=O)[C@H](CC(=O)O)NC(=O)[C@H](CO)NC(=O)[C@@H](NC(=O)[C@H](Cc1ccccc1)NC(=O)[C@@H](NC(=O)CNC(=O)[C@H](CCC(N)=O)NC(=O)[C@H](CO)NC(=O)[C@@H](N)Cc1c[nH]cn1)[C@@H](C)O)[C@@H](C)O)C(C)C)C(=O)O` [Example 34, N^ε24-[(4S)-4-carboxy-4-[[2-[2-[2-[[2-[2-[2-[[(4S)-4-carboxy-4-(17-carboxyheptadecanoylamino)butanoyl]amino]ethoxy]ethoxy]acetyl]amino]ethoxy]ethoxy]acetyl]amino]butanoyl]-[Glu15,Lys24,Leu27,Leu29]-Glucagon]: the EC50 came to 1.9 nM.
As for `CC(C)C[C@H](NC(=O)[C@H](Cc1c[nH]c2ccccc12)NC(=O)[C@H](CCCCNC(=O)CC[C@H](NC(=O)COCCOCCNC(=O)COCCOCCNC(=O)CC[C@H](NC(=O)CCCCCCCCCCCCCCCCC(=O)O)C(=O)O)C(=O)O)NC(=O)[C@@H](NC(=O)[C@H](Cc1ccccc1)NC(=O)[C@H](CCC(=O)O)NC(=O)[C@H](CCC(N)=O)NC(=O)[C@H](C)NC(=O)[C@H](CCCNC(=N)N)NC(=O)[C@H](CCCNC(=N)N)NC(=O)[C@@H](NC(=O)[C@H](CC(=O)O)NC(=O)[C@H](CC(C)C)NC(=O)[C@H](Cc1ccc(O)cc1)NC(=O)[C@H](CCCCN)NC(=O)[C@H](CO)NC(=O)[C@H](Cc1ccc(O)cc1)NC(=O)[C@H](CC(=O)O)NC(=O)[C@H](CO)NC(=O)[C@@H](NC(=O)[C@H](Cc1ccccc1)NC(=O)[C@@H](NC(=O)CNC(=O)[C@H](CCC(N)=O)NC(=O)[C@H](CO)NC(=O)[C@@H](N)Cc1c[nH]cn1)[C@@H](C)O)[C@@H](C)O)[C@@H](C)O)C(C)C)C(=O)N[C@@H](CC(C)C)C(=O)N[C@@H](CC(N)=O)C(=O)N[C@H](C(=O)O)C(C)C` [Example 36, N^ε24-[(4S)-4-carboxy-4-[[2-[2-[2-[[2-[2-[2-[[(4S)-4-carboxy-4-(17-carboxyheptadecanoylamino)butanoyl]amino]ethoxy]ethoxy]acetyl]amino]ethoxy]ethoxy]acetyl]amino]butanoyl]-[Thr16,Glu21,Lys24,Leu27,Val29]-Glucagon] (H-HSQGTFTSDYSKYLDTRRAQEFVK([γGlu-AEEA-AEEA-γGlu-C18 diacid])WLLNV-OH), the figure is 0.12 nM.

The record behind these values is patent publication US9486506B2 (Novo Nordisk A/S, priority 2011, dated 2016).
